Laboratory results: PubChem BioAssay AID1919001 (Molecular Pharmacology Branch, DTP, NCI, 2023)

System: 699152-130-R-J1-PDC complex spheroid growth
Experiment: Anticancer human tumor 699152-130-R-J1-PDC patient-derived pancreatic carcinoma cell line growth inhibition [AhR]
Conditions: for IC50: curve of first compound; for viability, T/C: stronger effect = lower value
Outline: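 Agents were dosed in half-log steps down from roughly clinical Cmax, or from 10 microM where Cmax was unknown, alone and with AhR antagonists. Read-out: percent test/control growth of tumor spheroids containing HUVEC and MSC stromal cells.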
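Also: compound exposure lasted 7 days after spheroids had grown for 3 days.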

CC(C)CC(NC(=O)C(Cc1ccccc1)NC(=O)c1cnccn1)B(O)O (stereo not given) + Cc1cncc(-c2nc(NCCc3c[nH]c4ccccc34)c3ncn(C(C)C)c3n2)c1
IC50 (second compound 0.1 µM): 15 nM
IC50 (second compound 0.316 µM): 16.3 nM
IC50 (second compound 1 µM): 17 nM
IC50 (second compound 3.16 µM): 15.7 nM
IC50 (second compound 10 µM): < 0.949 nM
viability, T/C (second compound 0.1 µM, first compound 0.000949 µM): 107%
viability, T/C (second compound 0.1 µM, first compound 0.003 µM): 104%
viability, T/C (second compound 0.1 µM, first compound 0.00949 µM): 82.4%
viability, T/C (second compound 0.1 µM, first compound 0.03 µM): 1.43%
viability, T/C (second compound 0.1 µM, first compound 0.0949 µM): 2.12%
viability, T/C (second compound 0.1 µM, first compound 0.3 µM): 0.56%
viability, T/C (second compound 0.316 µM, first compound 0.000949 µM): 99.4%
viability, T/C (second compound 0.316 µM, first compound 0.003 µM): 112%
viability, T/C (second compound 0.316 µM, first compound 0.00949 µM): 93.8%
viability, T/C (second compound 0.316 µM, first compound 0.03 µM): 0.83%
viability, T/C (second compound 0.316 µM, first compound 0.0949 µM): 0.54%
viability, T/C (second compound 0.316 µM, first compound 0.3 µM): 0.39%
viability, T/C (second compound 1 µM, first compound 0.000949 µM): 119%
viability, T/C (second compound 1 µM, first compound 0.003 µM): 111%
viability, T/C (second compound 1 µM, first compound 0.00949 µM): 100%
viability, T/C (second compound 1 µM, first compound 0.03 µM): 0.8%
viability, T/C (second compound 1 µM, first compound 0.0949 µM): 0.31%
viability, T/C (second compound 1 µM, first compound 0.3 µM): 0.34%
viability, T/C (second compound 3.16 µM, first compound 0.000949 µM): 80.3%
viability, T/C (second compound 3.16 µM, first compound 0.003 µM): 92.8%
viability, T/C (second compound 3.16 µM, first compound 0.00949 µM): 91.3%
viability, T/C (second compound 3.16 µM, first compound 0.03 µM): 0.56%
viability, T/C (second compound 3.16 µM, first compound 0.0949 µM): 0.26%
viability, T/C (second compound 3.16 µM, first compound 0.3 µM): 0.31%
viability, T/C (second compound 10 µM, first compound 0.000949 µM): 10.4%
viability, T/C (second compound 10 µM, first compound 0.003 µM): 12.2%
viability, T/C (second compound 10 µM, first compound 0.00949 µM): 5.17%
viability, T/C (second compound 10 µM, first compound 0.03 µM): 0.33%
viability, T/C (second compound 10 µM, first compound 0.0949 µM): 0.3%
viability, T/C (second compound 10 µM, first compound 0.3 µM): 0.39%
